Experimental data reported in patent publication US10265374B2, “Occidiofungin formations and uses thereof” (MISSISSIPPI STATE UNIVERSITY, priority 2014, dated 2019).

Columns and labels:
[1] = Pharmacokinetics in mouse (i.v., LC-MS/MS of plasma); format: in vivo; conditions: 2.5 mg/kg i.v., mice
Procedure: Six week old female BALB-C mice were used for this experiment. Occidiofungin, at a concentration of 2.5 mg/kg of body weight, was administered through the tail vein of each mouse. Nine mice were randomly selected for this experiment and were grouped into three groups of three mice each. Blood was drawn at 1, 3, 5, 7, 9, 12, 24 and 48 hours post injection (hpi) from the mice. 15 μl of blood was drawn from the lateral saphenous vein of each mouse for the first three time points. Blood from three mice were pooled together and added to 5 μl of 6.4% citric acid to prevent coagulation. From the fourth time point, blood was drawn from the tail vein of the mice. Blood samples were spun down at 13000 rpm for 10 minutes to separate the plasma. The plasma and the blood pellet obtained were stored separately at −20° C. for analysis. The plasma samples were thawed and the occidiofungin was extracted using a final concentration of 50% methanol. The protein precipitate was spun down at 13000 rpm for 10 minutes and the supernatant was used for analysis. The LC-MS/MS components were carried out at ThermoScientific laboratories. Liquid chromatography was done using Acclaim 120 C18 columns (Length: 150 mm; I.D: 2.1 mm; 5 μm) to purify the occidiofungin in the sample. The occidiofungin was then subjected to MS/MS using the ThermoScientific TSQ Vantage. Fragmentation of the occidiofungin (parent mass 1216 m/z) was carried out and the fragment of 1084 m/z, which corresponds to the occidiofungin molecule without the xylose sugar, was used for quantification of occidiofungin. All data were acquired and analyzed using TraceFinder (v 3.1).

[2] = tested on: SW1088; experiment: In vitro toxicity screening (CellTiter-Blue cell viability, 48 hours); format: cell-based, human; conditions: SW1088 astrocytoma brain cancer cell line, mean of three independent experiments, read-out: TC50 (the source's name)
Text: (§1) Cancer cell lines, OVCAR8 (Center for Cancer Research (OVAR.8; Sample ID 25)), SW1088 (ATCC-HTB-12), and Toledo (ATCC CRL-2631), and normal human neonatal dermal fibroblasts cell line (ATCC-PCS-201-010) were passaged and prepped as previously described (See References 15-17). OVCAR8, SW1088, and Toledo2631 are ovarian, brain, and B-cell lymphoma cancer cell lines, respectively. This panel of cell lines was chosen based, in part, on their being from very different cancer types in order to discern whether occidiofungin would have a broad spectrum activity towards cancer cell lines of vastly different parental organ/cell types. OVCAR8 cells are widely used in the field of cancer therapeutic research as a panel representative of ovarian cancer in screening experiments for identifying both ovarian-specific and non-specific (i.e., anti-neoplastic activity on multiple cancer cell types) therapeutic agents (See References 28-30). Similarly, SW1088 cells are widely used in the field of cancer therapeutic research as a panel representative of glioma (the most common brain cancer) in screening experiments for identifying both glioma-specific and non-specific therapeutic agents (See References 31-32). Toledo 2631 cells are derived from lymphoma cells, and are used in the field of cancer therapeutic research for identifying lymphoma-specific and non-specific therapeutic agents (See, e.g., Reference 33). […] Cell counts per plate were calculated to be approximately 50,000 cells/mL. A 10× stock solution of occidiofungin was prepared at 65 μM concentration in 10% dimethyl sulfoxide (DMSO). Two-fold serial dilutions on a 96 well plate were set up in triplicate with starting concentration of 6.5 μM and a final concentration of 3 nM. Bortezomib was used as a comparator for toxicity against human fibroblast and was serially diluted two-fold starting at a concentration of 5 μM and ending at 2.5 nM. Bortezomib is used clinically against myeloma and lymphoma cancers in patients refractory against other chemotherapeutics (See References 18, 19). Furthermore, bortezomib has shown efficacy against a variety of solid tumors and cancer cell lines, making this an appropriate comparison molecule in the panel of cell lines chosen (See References 34-35). The plates were then incubated at 37° C. in 5% CO2 for 48 hours. After 48 hours, cell viability was monitored using CellTiter-Blue (Promega) cell viability assay by measuring the fluorescence emission of a redox activated dye (579EX/584EM) using a POLARstar Omega microplate reader (BMG Labtech).

[3] = tested on: Toledo (ATCC CRL-2631); experiment: as above; format: cell-based, human; conditions: Toledo CRL-2631 B-cell lymphoma cell line, mean of three independent experiments, read-out: TC50 (the source's name)
Text: as §1

[4] = tested on: OVCAR8; experiment: as above; format: cell-based, human
Text: as §1

[5] = tested on: Saccharomyces cerevisiae gene deletion mutants; conditions: Δycal vs wild-type, Reference 2; cited from earlier work
[6] = tested on: Candida albicans; conditions: Candida albicans (References 9, 10); cited from earlier work
[7] = tested on: wide array of fungi; conditions: cited from earlier work
[8] = tested on: yeast cells; conditions: low drug concentrations (1 μg/ml, around 833 nM), Reference 2; cited from earlier work
[9] = tested on: normal human neonatal dermal fibroblasts cell line; experiment: In vitro toxicity screening (CellTiter-Blue cell viability, 48 hours); format: cell-based
Text: as §1

Substance: occidiofungin
- clearance from the system by 24 hours [1]: rapidly cleared
- concentration at 9-12 hpi compared to the concentration at 7 hpi [1]: 2.5 times
- concentration of occidiofungin relative to the TC50 value for the cancer strains [1]: three to six fold higher
- time at which occidiofungin concentration peaked [1]: around 9 hpi
- concentration by 48 hours ([1]; limit of quantification 50 ng/ml): below the level of quantification
- peak concentration in blood/plasma ([1]; tail vein): 480 ng/mL
- CC50 [2]: 68 nM
- CC50 [3]: 70 nM
- CC50 ([4]; OVCAR8 ovarian cancer cell line, 48 hours, mean of three independent experiments, read-out: TC50 (the source's name)): 61 nM
- activity against the cancer cell lines relative to what has been reported against Candida species ([4]; cancer cell lines OVCAR8, SW1088, Toledo together): ten to twenty-fold higher
- increase in resistance on deletion of the ycal gene [5]: 2 fold
- fungicidal activity compared with caspofungin [6]: more rapid
- concentrations at which antifungal activity was observed [7]: micromolar to sub micromolar
- morphological change of yeast cells [8]: appeared to shrink in size
- cancer cell lines relative to normal human primary dermal fibroblasts cell line ([9]; TC50 of OVCAR8, SW1088, Toledo vs fibroblasts): approximately eight-fold higher
- CC50 ([9]; human fibroblast cell line, 48 hours, mean of three independent experiments, read-out: TC50 (the source's name)): 533 nM
- activity relative to bortezomib against the human fibroblast cell line ([9]; occidiofungin vs bortezomib): approximately eight-fold higher
